Reference: patent publication US9593305B2, “Differentiation of pluripotent stem cells” (Janssen Biotech, Inc., priority 2008, dated 2017)

Test system: H1 human embryonic stem cells
Assay: Four-step differentiation with GDF-8, RT-PCR of pancreatic endoderm markers after step 4 (Example 19)
Assay type: cell-based
Settings: 100 ng/ml GDF-8 with Wnt3a or with 2.5 μM Compound 40
Experimental: The differentiation process was started three days after the cells were seeded into 6-well plates. A four-step protocol was used for the in vitro differentiation of H1 human embryonic stem cells to cells expressing markers characteristic of the pancreatic endoderm lineage. Step 1 was conducted over three days to generate cells expressing markers characteristic of the definitive endoderm lineage. On the first day of step 1, differentiation was initiated by aspirating spent culture medium and adding an equal volume of RPMI-1640 basal medium (Invitrogen; Cat #22400) with 2% Albumin Bovine Fraction V, Fatty Acid Free (FAF BSA) (Proliant Biologicals; Cat #SKU 68700) and 8 ng/ml bFGF. In one treatment group, duplicate sets of cells were treated with 100 ng/ml GDF-8 (R&D Systems; Cat #788-G8) and 20 ng/ml Wnt3a (R&D Systems; Cat #1324-WN/CF). In a second treatment group, duplicate sets of cells were treated with 100 ng/ml GDF-8 and 2.5 μM Compound 40. On the second and third day of step 1 differentiation, cells in all treatment groups were fed with RPMI-1640 containing 2% FAF BSA, 8 ng/ml bFGF and 100 ng/ml GDF-8 but without the addition of Wnt3a or Compound 40. […]
Step 4 of the differentiation protocol was carried out over three days. […] On the following day, cells in suspension culture were collected and counted. […]

Compound | markers characteristic of the pancreatic endoderm lineage at the conclusion of step 4 (RT-PCR)
C=CCN1CC(=O)NCCCc2cncc(c2)-c2ncnc(n2)Nc2cccc(c2)C1 [Compound 40, 14-Prop-2-en-1-yl-3,5,7,14,17,23,27-heptaazatetracyclo[19.3.1.1˜2.6˜0.1˜8,12˜]heptacosa-1(25), 2(27), 3,5,8(26), 9,11,21,23-nonaen-16-one] | expressed equivalent levels of markers characteristic of the pancreatic endoderm lineage
GDF-8: growth factor GDF-8, also known as myostatin, member of the TGF-β family | expressed equivalent levels of markers characteristic of the pancreatic endoderm lineage
